Experimental findings from patent publication US6200989A, “2-alkylidene hydroxycumaranone derivatives” (Hoffmann-La Roche Inc., priority 1997, dated 2001) are described below.

The target in the assay is uPAR (Homo sapiens, UniProt Q03405). The assay is described as follows: ELISA test: inhibition of human urokinase (uPA) binding to its specific receptor uPAR. The note with it: test substance preincubated 30 min at room temperature. On the procedure: Compounds of the invention were tested (ELISA test) as inhibitors of human urokinase (uPA) binding to its specific receptor uPAR mAk (BIO-R4), according to the procedure described in Biol. Chem. Hoppe-Seyler, 376, 587-94 (1995) by Rettenberger et al. The assays are performed in Microtiterplates (96 wells). The following solutions are used:
washing buffer PBS-buffer (without Mg^2+ and Ca^2+)+0.05% Tween 20;
incubation buffer (IP): 1% skimmed milk powder in PBS-buffer (without Mg^2+ and Ca^2+);
BIO-R4 solution: 50 ng/well (0.5 (g/ml; 100 (l/well) in IP;
uPAR solution: 3 ng/well (30 ng/ml; 100 (l/well) in PBS-buffer (without Mg^2+ and Ca^2+);
blocking solution: 1% skimmed milk powder in washing buffer (dissolved at 37° C.);
uPA solution: 0.25 ng/well (5 ng/ml; 50 (l/well) in IP.
Detect ion solutions (per microtiterplate):
(1) 6 ml (100 mM Tris-Cl pH 7.2+0.15% Tween 80)+1.5 ml (10 (g) Plasminogen in aqua bidest;
(2) 6 ml (100 mM Tris-Cl pH 7.2+0.15% Tween 80)+1.5 ml (7.5 mg) chromozyme PL in aqua bidest.
The detection solution must be continuously stirred. Testing substances: the testing substances are dissolved in DMSO. They are used in the test system with a highest concentration of 100 (g/ml. The solutions are prepared using PBS.
Three controls are performed:
a) positive control: using 2% DMSO in PBS;
b) negative control: assay without receptor;
1) inhibition (IC95 at 0.25 mg/ml) with dextranesulfate (MW=500.000);
2) inhibition (IC90 at 1 (g/ml) with inactivated uPA (175 (g/ml).
Incubation is done as follows:
Each well is incubated by 100 (1 of BIO-R4 (c=0.5 (g/ml) for 1 hour at room temperature under shaking. After washing three times with the washing buffer, each well is incubated for 1 hour (37° C.) with 200 (l/well blocking solution. After triple washing each well is incubated for 1 hour at room temperature under shaking with 100 (l/well uPAR (c=30 ng/ml), then the wells are washed again three times with the washing buffer. The testing substance solution and the control solution, respectively, are added (50 (l/well) and are incubated for 30 minutes at room temperature under shaking. An additional 50 (l of uPA solution (c=2.5 ng/ml) are added. After 1 hour at room temperature a triple washing is performed.
For detection, the following procedure is used:
Incubation with 50 (l each of detection solution (1) and (2) at room temperature. After 20 minutes a yellow colour will be visible (the positive control reads an extinction of 1 after 45-60 minutes). The detection is performed at 405 nm (reference is 490 nm) using a Dynatech MR 7000 ELISA reader. To obtain the percentage of inhibition the following formula is used (E stands for extinction): [formula]

SMILES strings stand for the structures. A value given as a limit tells only on which side of the number the result lay.

As usually defined, the IC50 is the concentration needed to halve the response being measured.

Chain of uPAR (Q03405 23-305 limits assumed): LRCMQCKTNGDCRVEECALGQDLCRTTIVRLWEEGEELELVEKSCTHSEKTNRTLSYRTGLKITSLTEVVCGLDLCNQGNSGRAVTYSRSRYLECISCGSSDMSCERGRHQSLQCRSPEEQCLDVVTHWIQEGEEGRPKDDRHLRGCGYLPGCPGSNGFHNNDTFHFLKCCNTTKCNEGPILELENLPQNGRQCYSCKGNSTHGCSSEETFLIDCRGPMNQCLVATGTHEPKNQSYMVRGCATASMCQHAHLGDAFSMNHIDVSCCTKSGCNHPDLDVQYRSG

`CC(C)=C1Oc2cccc(OCCCN3CCC(NC(=O)c4ccc(Cl)c(S(N)(=O)=O)c4)CC3)c2C1=O` [4-(3-(4-(3-aminosulfonyl-4-chlorobenzamido)piperidin-1yl)propoxy)-2-isopropylidenecumaran-3-one] showed an IC50 of 91.2 nM.

`CC(C)=C1Oc2cccc(OCCCCN3CCC(NC(=O)c4ccc(Cl)c(Cl)c4)CC3)c2C1=O` [4-(4-(4-(3,4-dichlorobenzamido)piperidin-1-yl)butoxy)-2-isopropylidenecumaran-3-one]: the half-maximal inhibitory concentration (IC50) is > 19.3 nM.

The compound `CC(C)=C1Oc2cccc(OCCOCCN3CCC(NC(=O)c4ccc(F)cc4)CC3)c2C1=O` [4-[(2-(2-(4-(4-fluorobenzamido)piperidin-1-yl)ethyl)oxy)ethyloxy]-2-isopropylidenecumaran-3-one] gave an IC50 of 104 nM.

Consider `CC(C)=C1Oc2cccc(OC/C=C/CN3CCC(NC(=O)c4ccc(Cl)c(Cl)c4)CC3)c2C1=O` [(E)-4-(4-(4-(3,4-dichlorobenzamido)piperidin-1-yl)-2-butenoxy)-2-isopropylidenecumaran-3-one], for which the IC50 is > 19.4 nM.

`CC(C)=C1Oc2cccc(OC/C=C\CN3CCC(NC(=O)c4ccc(Cl)c(Cl)c4)CC3)c2C1=O` [(Z)-4-(4-(4-(3,4-dichlorobenzamido)piperidin-1-yl)-2-butenoxy)-2-isopropylidenecumaran-3-one]: the IC50 is > 19.4 nM.
